According to PubChem BioAssay (NCI):
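Growth conditions: 96-well plates. Treatment: test compound, 48 hours, 5 concentrations. Analysis: linear interpolation between bracketing concentrations; unreached endpoints set to highest concentration. Abbreviation: GI50, concentration required for 50% inhibition of growth. TGI denotes the concentration required for complete inhibition of growth.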

Assays:
Assay in all cases: NCI tumour cell line growth inhibition, 48 h
SN12C renal = test system: SN12C renal
SF-295 CNS = test system: SF-295 CNS
SK-MEL-2 melanoma = test system: SK-MEL-2 melanoma
786-0 renal = test system: 786-0 renal
HCT-116 colon = test system: HCT-116 colon
SK-MEL-5 melanoma = test system: SK-MEL-5 melanoma
MDA-MB-231 breast = test system: MDA-MB-231 breast
HCC-2998 colon = test system: HCC-2998 colon
SF-539 CNS = test system: SF-539 CNS
HOP-92 NSCLC = test system: HOP-92 NSCLC
UACC-257 melanoma = test system: UACC-257 melanoma
NCI-H460 lung = test system: NCI-H460 lung
DU-145 prostate = test system: DU-145 prostate
LOX IMVI melanoma = test system: LOX IMVI melanoma
IGROV1 ovarian = test system: IGROV1 ovarian
TK-10 renal = test system: TK-10 renal
OVCAR-8 ovarian = test system: OVCAR-8 ovarian
HL-60(TB) leukemia = test system: HL-60(TB) leukemia
SK-OV-3 ovarian = test system: SK-OV-3 ovarian
HCT-15 colon = test system: HCT-15 colon
OVCAR-3 ovarian = test system: OVCAR-3 ovarian
RPMI-8226 leukemia = test system: RPMI-8226 leukemia
NCI/ADR-RES ovarian = test system: NCI/ADR-RES ovarian
NCI-H226 lung = test system: NCI-H226 lung
HS 578T breast = test system: HS 578T breast
A498 renal = test system: A498 renal
T-47D breast = test system: T-47D breast
COLO 205 colon = test system: COLO 205 colon
MOLT-4 leukemia = test system: MOLT-4 leukemia
SF-268 CNS = test system: SF-268 CNS
HT29 colon = test system: HT29 colon
UACC-62 melanoma = test system: UACC-62 melanoma
HOP-62 NSCLC = test system: HOP-62 NSCLC
U251 CNS = test system: U251 CNS
PC-3 prostate = test system: PC-3 prostate
SR leukemia = test system: SR leukemia
EKVX NSCLC = test system: EKVX NSCLC
K-562 leukemia = test system: K-562 leukemia
M14 melanoma = test system: M14 melanoma
SW-620 colon = test system: SW-620 colon
SNB-75 CNS = test system: SNB-75 CNS
UO-31 renal = test system: UO-31 renal
RXF 393 renal = test system: RXF 393 renal
CCRF-CEM leukemia = test system: CCRF-CEM leukemia
OVCAR-5 ovarian = test system: OVCAR-5 ovarian
CAKI-1 renal = test system: CAKI-1 renal
KM12 colon = test system: KM12 colon
SNB-19 CNS = test system: SNB-19 CNS
SK-MEL-28 melanoma = test system: SK-MEL-28 melanoma
NCI-H23 lung = test system: NCI-H23 lung
ACHN renal = test system: ACHN renal
A549 NSCLC = test system: A549 NSCLC
OVCAR-4 ovarian = test system: OVCAR-4 ovarian
MALME-3M melanoma = test system: MALME-3M melanoma
NCI-H522 lung = test system: NCI-H522 lung
BT-549 breast = test system: BT-549 breast
MDA-MB-435 = test system: MDA-MB-435

In the case of `C=C1C(=O)O[C@H]2[C@H]1CC/C(COC(=O)/C=C\C(=O)NCc1ccc(Cn3c(=O)sn(-c4ccc(C#N)cc4)c3=O)cc1)=C\CC[C@@]1(C)O[C@@H]21`, the GI50 (SN12C renal) is reported as 671 nM, the TGI (SN12C renal) is reported as 1570 nM and the GI50 (SF-295 CNS) is reported as 3540 nM. For the same compound, the TGI (SF-295 CNS) was 9700 nM, the GI50 (SK-MEL-2 melanoma) was 935 nM and the TGI (SK-MEL-2 melanoma) was 2030 nM. The GI50 (786-0 renal) was 727 nM, the TGI (786-0 renal) was 1520 nM and the GI50 (HCT-116 colon) was 218 nM. The TGI (HCT-116 colon) was 956 nM, the GI50 (SK-MEL-5 melanoma) was 842 nM and the TGI (SK-MEL-5 melanoma) was 1550 nM. The GI50 (MDA-MB-231 breast) was 720 nM, the TGI (MDA-MB-231 breast) was 1740 nM and the GI50 (HCC-2998 colon) was 901 nM. For the same compound, the TGI (HCC-2998 colon) was 1760 nM, the GI50 (SF-539 CNS) was 753 nM and the TGI (SF-539 CNS) was 1430 nM. It also gave a GI50 (HOP-92 NSCLC) of 622 nM, a TGI (HOP-92 NSCLC) of 1450 nM and a GI50 (UACC-257 melanoma) of 812 nM. For the same compound, the TGI (UACC-257 melanoma) was 1660 nM, the GI50 (NCI-H460 lung) was 844 nM and the TGI (NCI-H460 lung) was 1830 nM. The GI50 (DU-145 prostate) was 725 nM, the TGI (DU-145 prostate) was 1400 nM and the GI50 (LOX IMVI melanoma) was 437 nM. The TGI (LOX IMVI melanoma) was 1160 nM, the GI50 (IGROV1 ovarian) was 592 nM and the TGI (IGROV1 ovarian) was 1300 nM. It also gave a GI50 (TK-10 renal) of 888 nM, a TGI (TK-10 renal) of 1610 nM and a GI50 (OVCAR-8 ovarian) of 802 nM. For the same compound, the TGI (OVCAR-8 ovarian) was 2700 nM, the GI50 (HL-60(TB) leukemia) was 961 nM and the TGI (HL-60(TB) leukemia) was 3490 nM. For the same compound, the GI50 (SK-OV-3 ovarian) was 4020 nM, the TGI (SK-OV-3 ovarian) was 10500 nM and the GI50 (HCT-15 colon) was 505 nM. The TGI (HCT-15 colon) was 1950 nM, the GI50 (OVCAR-3 ovarian) was 306 nM and the TGI (OVCAR-3 ovarian) was 953 nM. For the same compound, the GI50 (RPMI-8226 leukemia) was 443 nM, the TGI (RPMI-8226 leukemia) was 2590 nM and the GI50 (NCI/ADR-RES ovarian) was 1390 nM. The TGI (NCI/ADR-RES ovarian) was 5970 nM, the GI50 (NCI-H226 lung) was 1360 nM and the TGI (NCI-H226 lung) was 5630 nM. For the same compound, the GI50 (HS 578T breast) was 987 nM, the TGI (HS 578T breast) was 2790 nM and the GI50 (A498 renal) was 769 nM. For the same compound, the TGI (A498 renal) was 1550 nM, the GI50 (T-47D breast) was 836 nM and the TGI (T-47D breast) was 2180 nM. The GI50 (COLO 205 colon) was 541 nM, the TGI (COLO 205 colon) was 1410 nM and the GI50 (MOLT-4 leukemia) was 840 nM. It also gave a TGI (MOLT-4 leukemia) of 4820 nM, a GI50 (SF-268 CNS) of 724 nM and a TGI (SF-268 CNS) of 1410 nM. For the same compound, the GI50 (HT29 colon) was 474 nM, the TGI (HT29 colon) was 1900 nM and the GI50 (UACC-62 melanoma) was 722 nM. The TGI (UACC-62 melanoma) was 1450 nM, the GI50 (HOP-62 NSCLC) was 2520 nM and the TGI (HOP-62 NSCLC) was 9000 nM. The GI50 (U251 CNS) was 759 nM, the TGI (U251 CNS) was 1620 nM and the GI50 (PC-3 prostate) was 611 nM. For the same compound, the TGI (PC-3 prostate) was 1440 nM, the GI50 (SR leukemia) was 292 nM and the TGI (SR leukemia) was 50000 nM. It also gave a GI50 (EKVX NSCLC) of 797 nM, a TGI (EKVX NSCLC) of 1570 nM and a GI50 (K-562 leukemia) of 707 nM. For the same compound, the TGI (K-562 leukemia) was 50000 nM, the GI50 (M14 melanoma) was 699 nM and the TGI (M14 melanoma) was 1660 nM. It also gave a GI50 (SW-620 colon) of 353 nM, a TGI (SW-620 colon) of 1220 nM and a GI50 (SNB-75 CNS) of 581 nM. For the same compound, the TGI (SNB-75 CNS) was 1330 nM, the GI50 (UO-31 renal) was 468 nM and the TGI (UO-31 renal) was 1070 nM. The GI50 (RXF 393 renal) was 576 nM, the TGI (RXF 393 renal) was 1220 nM and the GI50 (CCRF-CEM leukemia) was 200 nM. For the same compound, the TGI (CCRF-CEM leukemia) was 17900 nM, the GI50 (OVCAR-5 ovarian) was 868 nM and the TGI (OVCAR-5 ovarian) was 1840 nM. For the same compound, the GI50 (CAKI-1 renal) was 354 nM, the TGI (CAKI-1 renal) was 1080 nM and the GI50 (KM12 colon) was 900 nM. For the same compound, the TGI (KM12 colon) was 1840 nM, the GI50 (SNB-19 CNS) was 969 nM and the TGI (SNB-19 CNS) was 2270 nM. For the same compound, the GI50 (SK-MEL-28 melanoma) was 857 nM, the TGI (SK-MEL-28 melanoma) was 1610 nM and the GI50 (NCI-H23 lung) was 861 nM. The TGI (NCI-H23 lung) was 1810 nM, the GI50 (ACHN renal) was 545 nM and the TGI (ACHN renal) was 1140 nM. The GI50 (A549 NSCLC) was 916 nM, the TGI (A549 NSCLC) was 2420 nM and the GI50 (OVCAR-4 ovarian) was 672 nM. The TGI (OVCAR-4 ovarian) was 1370 nM, the GI50 (MALME-3M melanoma) was 830 nM and the TGI (MALME-3M melanoma) was 1580 nM. For the same compound, the GI50 (NCI-H522 lung) was 714 nM, the TGI (NCI-H522 lung) was 1650 nM and the GI50 (BT-549 breast) was 697 nM. It also gave a TGI (BT-549 breast) of 1650 nM, a GI50 (MDA-MB-435) of 744 nM and a TGI (MDA-MB-435) of 1500 nM.
